Data set [1] can be described thus: Projected single-dose CL and Vss values in humans (allometric scaling of mouse, rat, dog, monkey IV PK). Conditions: human, projected by allometric scaling from single-dose IV PK. Here is the method:
Allometric scaling for the prediction of human Clearance and Volume of Distribution was based on interspecies simple allometric scaling of mouse, rat, dog, and cynomolgus monkey intravenous pharmacokinetic parameters (Boxenbaum, J Pharmacokinet Biopharm 10:201-27, 1982). Prediction of human CL was performed by extrapolating pre-clinical species' plasma intravenous clearance. The ‘rule of exponents’ (Mahmood & Balian, Life Sci 59:579-85, 1996) was examined in this prediction, where it has been proposed that, when the exponent of simple allometry lies between […] and 0.99, a correction factor based on Maximum Life Span (MLP) of this species can be applied and, when the exponent of simple allometry is greater than 1.0, a correction factor based on Brain Weight (BrW) can be applied, or a protein binding correction can be applied when available. In a similar manner, simple allometric scaling was employed to predict human Volume of Distribution. This method has been used successfully for varied drugs (Ward & Smith, Drug Metab Dispos 32:612-19, 2004; McGinnity et al., Curr Drug Metab 8:463-79, 2007).

Data set [2] in a line: Dog single dose pharmacokinetics. The note with it: male, beagle, plasma, IV; for half-life: read-out: t½ (converted); for Vd: read-out: Vss. It is filed as in vivo, beagle dogs. Here is the method:
(§1) Non-naïve male beagle dogs (8 months-3 years of age, body weight 8-13 kg) were used in this study. All animals for IV administration had free access to food and water; all animals for PO were fasted overnight prior to dosing and were fed approximately 6 hours after dosing. For the animals in PO group, pentagastrin (6.0 μg/kg, i.m.) was administrated 20 minutes before dosing PO formulation and 1.5 hours after the first pentagastrin dosing. The dosing volume was 0.024 mL/kg, the concentration was 250 μg/mL in DMSO/1 N NaOH/PBS. 10 mL of 0.001 N HCl was used to wash the gavage catheter for each animal. The IV dose solution was prepared in 10% DMA/50% PG/40% HPβCD solution (40% w/v aqueous HPβCD) at a concentration of 1.0 mg/mL. The oral dose suspension was prepared by suspending the compound in 0.5% HPMC/0.1% Tween 80 in distilled water at a concentration of 0.2 mg/mL. Concentrations of IV and PO doses were measured at the end of the study. PK parameters were calculated using the nominal dose values if the measured values were within 20% of the nominal values. Blood samples were collected by venipuncture of peripheral veins except the dosing vein at pre-dose, 5 15, 30 min, 1, 2, 4, 6, 8, 24 and 48 h post-dose. Blood samples were centrifuged and resultant plasma was frozen for bioanalysis. Plasma samples were stored at −80° C. before analysis. Plasma samples were analyzed for compound concentrations using the LC/MS/MS method. Briefly, a 50 μL aliquot of each plasma sample was mixed with 100 μL of acetonitrile that contained an internal standard. The mixture was vortexed and centrifuged. Ten (10) μL of the resulting solution was injected onto a reverse-phase C18 column and the resultant peaks detected on a LC/MS/MS equipped with a turbo ionspray ionization source. Sample concentrations below the limit of quantification (BLQ) were treated as zero for PK calculations. PK parameters were estimated from individual animals using noncompartmental analysis of the concentration-time data (Phoenix WinNonLin software, version 64; Pharsight, Mountain View, CA). The elimination rate constant (k) was calculated as the absolute value of the slope of the linear regression of logarithm (log) of the concentration versus time for the last three data points of the concentration-time profiles. Apparent elimination half-life (t1/2) values were calculated as ln(2)/k. Area under the concentration-time curve (AUC) values were estimated using linear trapezoidal method. AUCt values were calculated from the dosing time to the last measurable concentration. AUC∞ values were calculated as the sum of the corresponding AUCt and the ratio of the last detectable concentration divided by k. Plasma clearance (CL) was calculated from Dose/AUC∞. Mean resident time extrapolated to infinity (MRT∞) was estimated by moment analysis. Vss was calculated from MRT∞×CL. Maximum concentration (Cmax) and time to reach Cmax (tmax) were recorded as observed. As this was a cross-over study, bioavailability was calculated dAUC∞,po/dAUC∞,iv×100% where dAUC was the dose normalized AUC value from the same animal given IV and PO dose. Data for compounds tested are provided in Table D. Compounds tested were prepared in accordance with the synthetic procedures described herein.

Data set [3] can be described thus: Monkey single dose pharmacokinetics. The note with it: male, plasma, cynomolgus monkey, IV; for Vd: read-out: Vss; for half-life: read-out: t½ (converted). Type of data set: in vivo. Here is the method: as §1, with “Non-naïve Male Cynomolgus Monkey (2-5” for “Non-naïve male beagle dogs (8 months-3”, “weight 2-5” for “weight 8-13”, “kg)” for “kg) were”, “this study were obtained from Topgene Biotechnology.” for “this study.”, “dosing.” for “dosing. For the animals in PO group, pentagastrin (6.0 μg/kg, i.m.) was administrated 20 minutes before dosing PO formulation and 1.5 hours after the first pentagastrin dosing. The dosing volume was 0.024 mL/kg, the concentration was 250 μg/mL in DMSO/1 N NaOH/PBS. 10 mL of 0.001 N HCl was used to wash the gavage catheter for each animal.”, “Table E.” for “Table D.”

In the case of `C[C@H]1CC[C@H](N2CC(=O)N(Cc3ccc(F)c(F)c3)C3(CN(C=O)C3)C2=O)CC1` [Compound 4, 5-(3,4-difluorobenzyl)-8-((1r,4r)-4-methylcyclohexyl)-6,9-dioxo-2,5,8-triazaspiro[3.5]nonane-2-carbaldehyde], in data set [1], the “Projected CL” value is given as 1.84 mL/min/kg, the “Projected Vss” value was found to be 4.51 L/kg and the “Projected t½” value is given as 28.3 h. For the same molecule, the half-life in data set [2] is 9.54 h.
Usually clearance stands for a measure of how efficiently the substance is removed, as volume per time. For `CC(C)N1CC(=O)N(Cc2ccc(C(F)(F)F)cc2)C2(CN(c3cccnn3)C2)C1=O` [Compound 13, 8-isopropyl-2-(pyridazin-3-yl)-5-(4-(trifluoromethyl)benzyl)-2,5,8-triazaspiro[3.5]nonane-6,9-dione], in data set [1], the “Projected CL” value was determined as 4.66 mL/min/kg, the “Projected Vss” value stood at 3.43 L/kg and the “Projected t½” value came to 8.51 h. In addition, in data set [2], the clearance was 7.45 mL/min/kg, the Vd is 2.85 L/kg and the half-life is 6.44 h. In data set [3], the clearance stood at 25.8 mL/min/kg, the Vd turned out to be 3.98 L/kg and the half-life is 2.05 h.
As for `C[C@H]1CC[C@H](N2CC(=O)N(Cc3ccc(Cl)cc3)C3(CN(C(N)=O)C3)C2=O)CC1` [Compound 18, 5-(4-chlorobenzyl)-8-((1r,4r)-4-methylcyclohexyl)-6,9-dioxo-2,5,8-triazaspiro[3.5]nonane-2-carboxamide], in data set [1], the “Projected CL” value stood at 3.3 mL/min/kg, the “Projected Vss” value was found to be 7.1 L/kg and the “Projected t½” value was 25 h. For the same molecule, in data set [2], the clearance worked out at 18.8 mL/min/kg, the Vd was determined as 5.73 L/kg and the half-life is 5.8 h. Further, in data set [3], the clearance was found to be 7.91 mL/min/kg, the Vd was 6.08 L/kg and the half-life was 10.9 h.

The values are drawn from US12286437B2, “Cardiac sarcomere inhibitors” (Cytokinetics, Inc., priority 2021, dated 2025).
